# Starred links: 1 amine or outer side, 2 acyl side, 3 side chain; linkers in the order of their positions; H or OH if unused. Positions of bridges follow the written chain, without caps; N, C: chain ends. Non-standard residues stand in square brackets, D forms with d. Residues, ends and D or L forms follow the SMILES beside them. Chains are numbered I, II in the order given. Actinocin(9to1) = Cc1c2oc3c(C)ccc(C(=O)[*:1])c3nc-2c(C(=O)[*:2])c(N)c1=O; NMeV = CN[C@H](C(=O)O)C(C)C; Sar = CNCC(=O)O
# Tests used:
# Assay type in all cases: cell-based, human
# HaCaT cells [1] = experiment: Neutral comet assay of UVB-induced DNA damage in HaCaT cells; details: for reduction of UVB-induced DNA breakage in keratinocytes: L-NAME 1 mM, UVB 10 mJ/cm^2
# Description: FIGS. 10A-10B: UVB-induced DNA damage in HaCaT cells. The image (FIG. 10A) was captured by Cytation 3 Imaging Analyzer (BioTek, Winooski, Vt.); and, the DNA density (FIG. 10B) was analyzed by ImageJ (Version 1.46r. NIH) with Comet Assay Plugin (Pathology & Lab Med UNC-CH). *: p-value<0.05 vs. DMSO alone; **: p-value<0.05 vs. NAME. ***: p-value<0.05 vs. UV+DMSO. The data represents an average of DNA damage analysis for more than five cells.
# To assess the effect of cNOS inhibitor on UVB-induced DNA damage in keratinocutes, HaCaT cells were treated with DMSO (solvent) or L-NAME (1 mM) for 1 hour prior to UVB radiation (10 mJ/cm^2). At […] post-UVB, the cells were collected and DNA damage was determined using a neutral comet assay kit following manufacture's protocol (Trevigen, Gaithersburg, Md.).
# HaCaT cells [2] = experiment: Soft-agar cell transformation assay after UVB; details: UVB every other day for 14 days
# Description: FIG. 11: UVB-induced HaCaT cells transformation. The cell transformation was determined using a Transformation assay kit (Cell Biolabs, Inc.). *: p-value<0.05 vs. control. **: p-value<0.05 vs. UVB alone. The data represents an average of 3 sets of independent experiments.
# To determine the chemoprevetive function of cNOS inhibitor for UVB-induced skin cell transformation, cells were treated with sham or UVB every other day for 14 days in the presence or absence of L-NAME (1 mM in media) all time. The cells were detached from plate and same amount of cells were seeded in soft-agar in 96-well microtiter plate. At day 10, the cells alone with soft-agar were solubilized in the wells using Cytoselect buffer (Cell Biolabs, Inc., San Diego, Calif.) and the amount of transformed cells was determined by fluorescence intensity using a Spectra Max M2 fluorescent platereader (Molecular Devices).
# IKKα mRNA = experiment: Quantitative real-time PCR of IKKα mRNA expression after UVB; details: HaCaT pre-treated with actinomycin D 5 μg/mL, UVB 50 mJ/cm^2
# Description: FIG. 3: Quantitative real-time PCR analysis of mRNA expression of IKKα in HaCaT human keratinocyte. The cells were pre-treated with DMSO or […] (Act.D, 5 μg/mL) and treated with of UVB (50 mJ/cm^2). The mRNA expression was normalized to GAP OH expression and depicted as fold change vs. DMSO control.
SMILES,"percentage of UVB-induced tail DNA content (HaCaT cells [1]; L-NAME 1 mM for 1 hour prior to UVB 10 mJ/cm^2, cells collected at 30 mM post-UVB, UVB+DMSO 49.2%)","tail DNA content, L-NAME alone (HaCaT cells [1]; L-NAME 1 mM without UVB, DMSO alone 20.7%)",reduction of UVB-induced DNA breakage in keratinocytes (HaCaT cells [1]; Control = DMSO alone),reduction of UVB-induced DNA breakage in keratinocytes (HaCaT cells [1]; Control = L-NAME alone),suppression of UVB-induced transformation of keratinocytes (HaCaT cells [2]; L-NAME 1 mM in media),"reading of transformed cells (fluorescence intensity) (HaCaT cells [2]; L-NAME 1 mM in media all time, soft-agar day 10, UVB alone 3.2)",effect on IKKα mRNA level post-UVB (IKKα mRNA)
COC(=O)[C@@H](N)CCCNC(=N)N[N+](=O)[O-] [L-NAME],32.4%,25.6%,58.9%,71.2%,almost totally suppresses,1.3,–
"Cc1c2oc3c(C)ccc(C(=O)N[C@@H]4C(=O)N[C@H](C(C)C)C(=O)N5CCC[C@H]5C(=O)N(C)CC(=O)N(C)[C@@H](C(C)C)C(=O)O[C@@H]4C)c3nc-2c(C(=O)N[C@@H]2C(=O)N[C@H](C(C)C)C(=O)N3CCC[C@H]3C(=O)N(C)CC(=O)N(C)[C@@H](C(C)C)C(=O)O[C@@H]2C)c(N)c1=O [actinomycin D] (I: T[dV]P[Sar][NMeV] / II: T[dV]P[Sar][NMeV]; ester I:1-I:C, II:1-II:C; linker I:N-II:N via Actinocin(9to1))",–,–,–,–,–,–,does not have a statistically significant effect
